Source: patent US10973826B2, “Antibody conjugates comprising toll-like receptor agonist” (Novartis AG, priority 2015, dated 2021)

Assay: In vitro stability of conjugates in mouse serum (LC-MS: succinimide ring hydrolysis, deconjugation)
Assay type: in vitro ADME
Conditions: conjugates of the compound with anti-HER2 mAb2
Experimental: The stability of the bond formed between maleimide containing payloads and Cys residues of the antibody is enhanced by the hydrolysis of the succinimide ring formed in this reaction. The effects of succinimide ring hydrolysis on the stability of antibody conjugates prepared with agonist compounds of the invention were studied after in vitro incubation in mouse serum. Mass changes resulting from payload deconjugation and the hydrolysis of the succinimide ring of maleimide payloads conjugated to antibodies were monitored by LC-MS. The hydrolysis of the succinimide ring has been reported to be stimulated by certain conditions such as high pH, high temperature, or high salts (J. Am. Chem. Soc. 1955, 77: 3922; Biochemistry 1976, 15: 2836; Biochem. J. 1979, 179: 191-197; J Pharm Sci. 1984, 73:1767-1771; Bioorg. Med. Chem. Lett. 17: 6286-6289, 2007). To probe the in vitro stability of conjugates, anti-HER2 antibody mAb2 conjugates were incubated at 37° C. in 50-70% mouse serum. […] The light chain, heavy chain Fab, and heavy chain Fc fragments were then analyzed by ESI-MS. The relative populations of deconjugated antibody, conjugates with attached payload with hydrolyzed succinimide ring, and conjugates with attached payload with intact succinimide ring, were calculated from the relative MS intensities of the corresponding conjugate species. […]

| Structure (SMILES) | conjugate stability (deconjugation, succinimide ring hydrolysis) |
| --- | --- |
| CCCCCNc1nc(N)nc2ccn(Cc3ccc(CN4CCN(CCN5C(=O)C=CC5=O)CC4)cc3OC)c12 [Compound C-5, 1-(2-(4-(4-((2-amino-4-(pentylamino)-5H-pyrrolo[3,2-d]pyrimidin-5-yl)methyl)-3-methoxybenzyl)piperazin-1-yl)ethyl)-1H-pyrrole-2,5-dione] | improved conjugate stability |
| CCCCCNc1nc(N)nc2ccn(Cc3ccc(CN4CCN(C(=O)CCOCCOCCNC(=O)CN5C(=O)C=CC5=O)CC4)cc3OC)c12 [Compound C-21, N-(2-(2-(3-(4-(4-((2-amino-4-(pentylamino)-5H-pyrrolo[3,2-d]pyrimidin-5-yl)methyl)-3-methoxybenzyl)piperazin-1-yl)-3-oxopropoxy)ethoxy)ethyl)-2-(2,5-dioxo-2,5-dihydro-1H-pyrrol-1-yl)acetamide] | improved conjugate stability |
